The source of these data is patent US8937067B2, “Activators of human pyruvate kinase” (The United States of America, as represented by the …, priority 2008, dated 2015).

The test addresses hPK-M2 (Homo sapiens, UniProt P14618). The experiment in a line: Luminescent pyruvate kinase-luciferase coupled assay (KinaseGlo). As to conditions: for activation at 57 µM: read-out: hPK, M2 Max. Res. The format is biochemical. The procedure: Luminescent Pyruvate Kinase-Luciferase Coupled Assay.
Production of a luminescent signal based on the generation of ATP by pyruvate kinase was determined by using the ATP-dependent enzyme firefly luciferase. Three μL of substrate mix (at r.t.) in assay buffer (50 mM imidazole pH 7.2, 50 mM KCl, 7 mM MgCl2, 0.01% tween 20, 0.05% BSA) was dispensed into Kalypsys white solid bottom 1,536 well microtiter plates using a bottle-valve solenoid-based dispenser (Kalypsys). The final concentrations of substrates in the assay were 0.1 mM ADP and 0.5 mM PEP. […] Microtiter plates were incubated at r.t. for 1 hour and 2 uL of luciferase detection mix (Kinase-Glo, Promega at 4° C. protected from light) was added and luminescence was read with a ViewLux (Perkin Elmer) using a 5 second exposure/plate. Data was normalized for AC50 values to control columns containing uninhibited enzyme (n), and AC100 inhibition (i) according the following equation: Activation (%)=[(c−n)/(n−i)]*100 where c=compound, n=DMSO neutral, i=no enzyme control. […] Monitoring of activation was accomplished using enzyme at 3× the final concentration.

The mark [1] stands for this setting: KinaseGlo, % activation at 57 μM of compound.
Where [2] appears, read: luminescent pyruvate kinase-luciferase coupled assay (KinaseGlo), tables, read-out: hPK, M2 AC50.
Where [3] appears, read: luciferase-coupled assay, read-out: AC50.

Read-outs that look alike come from different tables or passages of the source.

Sequence of hPK-M2 (P14618 whole entry): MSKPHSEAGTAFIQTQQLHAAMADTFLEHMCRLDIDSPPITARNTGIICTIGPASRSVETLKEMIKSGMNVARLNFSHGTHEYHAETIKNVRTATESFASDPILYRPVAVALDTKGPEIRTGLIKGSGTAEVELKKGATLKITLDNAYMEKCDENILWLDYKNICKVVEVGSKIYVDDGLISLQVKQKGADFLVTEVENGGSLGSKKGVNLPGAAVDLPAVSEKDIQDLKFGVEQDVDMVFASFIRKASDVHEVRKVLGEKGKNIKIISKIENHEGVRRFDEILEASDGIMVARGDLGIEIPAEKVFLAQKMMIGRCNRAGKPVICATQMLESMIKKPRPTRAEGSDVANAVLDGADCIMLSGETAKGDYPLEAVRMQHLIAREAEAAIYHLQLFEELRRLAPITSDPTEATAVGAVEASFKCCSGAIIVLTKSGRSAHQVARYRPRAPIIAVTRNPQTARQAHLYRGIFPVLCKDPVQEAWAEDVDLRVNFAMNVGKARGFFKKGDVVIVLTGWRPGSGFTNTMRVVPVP

For the molecule `Cn1c2cc(C#N)sc2c2cnn(Cc3ccccc3F)c(=O)c21` [Compound 82, 2-Cyano-4-methyl-6-[(2-fluorophenyl)methyl]-4H-thieno[3,2-b]pyrrole[3,2-d]pyridazinone], the activation at 57 µM under setting [1] came out at 84.1 ± 5.5%. Further, under setting [2], the AC50 came out at 0.047 ± 0.02 µM. In the case of `O=S(=O)(c1ccc2c(c1)OCCO2)N1CCN(S(=O)(=O)c2c(F)ccc(O)c2F)CC1` [Compound 13, 3-(4-(2,3-dihydrobenzo[b][1,4]dioxin-6-ylsulfonyl)piperazin-1-ylsulfonyl)-2,4-difluorophenol], under setting [1], the activation at 57 µM turned out to be 95.3 ± 8.4%. Besides, the AC50 under setting [3] worked out at 0.052 ± 0.014 µM. Consider `Cn1c2ccsc2c2cnn(Cc3ccccc3F)c(=O)c21` [Compound 70, 4-Methyl-6-[(2-fluorophenyl)methyl]-4H-thieno[3,2-b]pyrrole[3,2-d]pyridazinone], for which the activation at 57 µM under setting [1] was 93.2 ± 6.6%. In addition, the AC50 under setting [2] stood at 0.605 ± 0.18 µM. With `CCCCCn1ncc2c3sc(C)cc3n(C)c2c1=O` [Compound 102, 2,4-Methyl-6-pentyl-4H-thieno[3,2-b]pyrrole[3,2-d]pyridazinone], the “PKM2 activation, result in words” value is listed as “marked loss of potency”.

Take `CCc1cc2c(s1)c1cnn(Cc3ccccc3F)c(=O)c1n2C` [Compound 68, 2-Ethyl-4-methyl-6-[(2-fluorophenyl)methyl]-4H-thieno[3,2-b]pyrrole[3,2-d]pyridazinone]: the activation at 57 µM under setting [1] was 105 ± 5.8%. The half-maximal activity concentration (AC50) under setting [2] stood at 0.1 ± 0.03 µM. As for `O=S(=O)(NCCCNS(=O)(=O)c1c(F)cccc1F)c1ccc2c(c1)OCCO2` [Compound 33, N-(3-(2,6-difluorophenylsulfonamido)propyl)-2,3-dihydrobenzo[b][1,4]dioxine-6-sulfonamide], under setting [1], the activation at 57 µM stood at 106 ± 5.1%. The half-maximal activity concentration (AC50) under setting [2] worked out at 3.85 ± 0.53 µM. As to `O=S(=O)(NC1CCN(S(=O)(=O)c2ccc3c(c2)OCCO3)CC1)c1c(F)cccc1F` [Compound 40, N-(1-(2,3-dihydrobenzo[b][1,4]dioxin-6-ylsulfonyl)piperidin-4-yl)-2,6-difluorobenzenesulfonamide], the activation at 57 µM under setting [1] was found to be 99.6 ± 3.1%. In addition, the concentration at half-maximal activity (AC50) under setting [2] was determined as 9 ± 4.5 µM. As to `O=S(=O)(NCC1CN(S(=O)(=O)c2ccc3c(c2)OCCO3)C1)c1c(F)cccc1F` [Compound 44, N-((1-(2,3-dihydrobenzo[b][1,4]dioxin-6-ylsulfonyl)azetidin-3-yl)methyl)-2,6-difluorobenzenesulfonamide], the activation at 57 µM under setting [1] was 108 ± 5.3%. Besides, the AC50 under setting [2] was determined as 3.05 ± 0.2 µM. For the molecule `Cc1cc2[nH]c3c(=O)n(Cc4ccccc4F)ncc3c2s1` [Compound 89, 2-Methyl-6-[(2-fluorophenyl)methyl]-4H-thieno[3,2-b]pyrrole[3,2-d]pyridazinone], the activation at 57 µM under setting [1] came out at 32.9 ± 3.8%. On to `Cn1c2cc([N+](=O)[O-])sc2c2cnn(Cc3ccccc3F)c(=O)c21` [Compound 80, 2-Nitro-4-methyl-6-[(2-fluorophenyl)methyl]-4H-thieno[3,2-b]pyrrole[3,2-d]pyridazinone], for which the AC50 under setting [2] came out at 0.018 ± 0.01 µM. Turning to `O=S(=O)(c1ccc(F)cc1)N1CCN(S(=O)(=O)c2ccc3c(c2)OCCO3)CC1` [Compound 6, 1-(2,3-dihydrobenzo[b][1,4]dioxin-6-ylsulfonyl)-4-(4-fluorophenylsulfonyl)piperazine], under setting [1], the activation at 57 µM is 99.7 ± 4.2%. Moreover, the AC50 under setting [2] is 0.094 µM. Consider `COc1cc(F)c(S(=O)(=O)N2CCN(S(=O)(=O)c3ccc4c(c3)OCCO4)CC2)c(F)c1` [Compound 11, 1-(2,6-difluoro-4-methoxyphenylsulfonyl)-4-(2,3-dihydrobenzo[b][1,4]dioxin-6-ylsulfonyl)piperazine], for which the activation at 57 µM under setting [1] was 91.8 ± 9.6%. In addition, under setting [2], the AC50 came out at 0.028 µM. On to `CC1(C)CCc2cc(S(=O)(=O)N3CCN(S(=O)(=O)c4c(F)cccc4F)CC3)ccc2O1` [Compound 27, 1-(2,6-difluorophenylsulfonyl)-4-(2,2-dimethylchroman-6-ylsulfonyl)piperazine], for which the activation at 57 µM under setting [1] worked out at 119 ± 5.4%. Moreover, the AC50 under setting [2] amounted to 0.093 µM.

Turning to `Cc1cc2c(s1)c1cnn(Cc3cccc(F)c3F)c(=O)c1n2C` [Compound 114, 2,4-Methyl-6-[(2,3-difluorophenyl)methyl]-4H-thieno[3,2-b]pyrrole[3,2-d]pyridazinone], the activation at 57 µM under setting [1] came out at 72.8 ± 7.8%. Besides, under setting [2], the AC50 was found to be 0.215 ± 0.06 µM.

Regarding `CN(C)c1cccc(S(=O)(=O)N2CCN(S(=O)(=O)c3ccc4c(c3)OCCO4)CC2)c1` [Compound 138], the “hPK, M2 Max. Res.” value under setting [1] was determined as 54.00%. Moreover, the AC50 under setting [2] turned out to be 0.092 µM. Take `O=S(=O)(NC1CCN(S(=O)(=O)c2c(F)cccc2F)CC1)c1ccc2c(c1)OCCO2` [Compound 39, N-(1-(2,6-difluorophenylsulfonyl)piperidin-4-yl)-2,3-dihydrobenzo[b][1,4]dioxine-6-sulfonamide]: the activation at 57 µM under setting [1] amounted to 101 ± 1.9%. Besides, the AC50 under setting [2] amounted to 3.69 ± 1.26 µM. On to `Cc1cc2c(s1)c1cnn(Cc3c(F)c(F)cc(F)c3F)c(=O)c1n2C` [Compound 117, 2,4-Methyl-6-[(2,3,5,6-tetrafluorophenyl)methyl]-4H-thieno[3,2-b]pyrrole[3,2-d]pyridazinone], for which the activation at 57 µM under setting [1] stood at 59.4 ± 6.3%. Also, under setting [2], the AC50 came to 0.345 ± 0.06 µM. On the same counts, the results for `O=S(=O)(c1ccc(Cl)cc1)N1CCN(S(=O)(=O)c2ccc3c(c2)OCCO3)CC1` [Compound 5, 1-(4-chlorophenylsulfonyl)-4-(2,3-dihydrobenzo[b][1,4]dioxin-6-ylsulfonyl)piperazine] are 99.6 ± 2.5% and 0.154 µM.

Regarding `O=S(=O)(c1ccc2c(c1)OCCO2)N1CCN(S(=O)(=O)c2ccccc2F)CC1` [Compound 8, 1-(2,3-dihydrobenzo[b][1,4]dioxin-6-ylsulfonyl)-4-(2-fluorophenylsulfonyl)piperazine], the activation at 57 µM under setting [1] was determined as 114 ± 4%. Also, the AC50 under setting [2] stood at 0.089 µM.

For `COc1cccc(Cn2ncc3c4sc([S+](C)[O-])cc4n(C)c3c2=O)c1` (stereo not shown) [Compound 148], the activation at 57 µM under setting [1] was determined as 89%. In addition, under setting [2], the AC50 is 0.092 µM. `O=S(=O)(c1ccc2c(c1)OCCO2)N1CCN(S(=O)(=O)c2c(F)cccc2F)CC1` [Compound 9, 1-(2,6-difluorophenylsulfonyl)-4-(2,3-dihydrobenzo[b][1,4]dioxin-6-ylsulfonyl)piperazine]: the activation at 57 µM under setting [1] came out at 94.4 ± 2.8%. The AC50 under setting [3] was determined as 0.065 ± 0.025 µM. On to `CN1CCOc2ccc(S(=O)(=O)N3CCN(S(=O)(=O)c4c(F)cccc4F)CC3)cc21` [Compound 25, 6-(4-(2,6-difluorophenylsulfonyl)piperazin-1-ylsulfonyl)-4-methyl-3,4-dihydro-2H-benzo[b][1,4]oxazine], for which, under setting [1], the “hPK, M2 Max. Res.” value came out at 93.5 ± 5.9%. The AC50 under setting [2] was found to be 2.71 µM. As for `O=S(=O)(c1ccccc1)N1CCN(S(=O)(=O)c2ccc3c(c2)OCCO3)CC1` [Compound 15, 1-(2,3-dihydrobenzo[b][1,4]dioxin-6-ylsulfonyl)-4-(phenylsulfonyl)piperazine], the activation at 57 µM under setting [1] is 108 ± 4.3%. Besides, the AC50 under setting [2] came to 0.202 µM. Consider `O=S(=O)(NC1CCN(S(=O)(=O)c2c(F)cccc2F)C1)c1ccc2c(c1)OCCO2` (stereo not shown) [Compound 41, N-(1-(2,6-difluorophenylsulfonyl)pyrrolidin-3-yl)-2,3-dihydrobenzo[b][1,4]dioxine-6-sulfonamide], for which the activation at 57 µM under setting [1] amounted to 82.4 ± 18%. The AC50 under setting [2] is above 15 µM.

In the case of `Cn1c2cc([S+](C)[O-])sc2c2cnn(Cc3cccc(N)c3)c(=O)c21` (stereo not shown) [Compound 149], the activation at 57 µM was found to be 91%. On to `O=S(=O)(c1ccc2c(c1)OCCO2)C1CCN(S(=O)(=O)c2c(F)cccc2F)CC1` [Compound 30, 1-(2,6-difluorophenylsulfonyl)-4-(2,3-dihydrobenzo[b][1,4]dioxin-6-ylsulfonyl)piperidine], for which the activation at 57 µM under setting [1] came to 110 ± 5.4%. Moreover, the AC50 under setting [2] is 0.863 µM. On the same counts, the results for `Cc1cc2c(s1)c1cnn(Cc3ccccc3F)c(=O)c1n2C` [Compound 66, 2,4-Methyl-6-[(2-fluorophenyl)methyl]-4H-thieno[3,2-b]pyrrole[3,2-d]pyridazinone] are 122 ± 6.1% and 0.063 ± 0.02 µM. As to `C[C@H]1CN(S(=O)(=O)c2c(F)cccc2F)CCN1S(=O)(=O)c1ccc2c(c1)OCCO2` [Compound 45, (S)-4-(2,6-difluorophenylsulfonyl)-1-(2,3-dihydrobenzo[b][1,4]dioxin-6-ylsulfonyl)-2-methylpiperazine], the activation at 57 µM under setting [1] turned out to be 109 ± 9.4%. In addition, under setting [2], the AC50 stood at 4.34 ± 0.74 µM. Turning to `CCn1c2cc(C)sc2c2cnn(Cc3ccccc3F)c(=O)c21` [Compound 90, 2-Methyl-4-ethyl-6-[(2-fluorophenyl)methyl]-4H-thieno[3,2-b]pyrrole[3,2-d]pyridazinone], the “hPK, M2 Max. Res.” value under setting [1] is reported as 95.6 ± 6.3%. Further, the concentration at half-maximal activity (AC50) under setting [2] amounted to 5.9 ± 1.7 µM. Turning to `Cc1ccc(Cn2ncc3c4sc(C)cc4n(C)c3c2=O)cc1` [Compound 109, 2,4-Methyl-6-[(4-methylphenyl)methyl]-4H-thieno[3,2-b]pyrrole[3,2-d]pyridazinone], under setting [1], the activation at 57 µM was 84.1 ± 5.5%. The AC50 under setting [2] is 0.356 ± 0.12 µM.

Turning to `O=S(=O)(c1ccc2c(c1)OCO2)N1CCN(S(=O)(=O)c2c(F)cccc2F)CC1` [Compound 24, 1-(benzo[d][1,3]dioxol-5-ylsulfonyl)-4-(2,6-difluorophenylsulfonyl)piperazine], the activation at 57 µM under setting [1] came to 61 ± 1.2%. In addition, the AC50 under setting [2] turned out to be 0.191 µM.
